Usually Emax stands for the maximal effect, on the per cent scale that the assay sets.

Among the data in patent US10123994B2, “Heterocyclic derivative having AMPK-activating activity” (SHIONOGI & CO., LTD., priority 2014, dated 2018) are EC150 and Emax values, retold here.

This experiment addresses T1, Human AMPK α2β2γ1 (Homo sapiens, UniProt O43741+P54619+P54646).
T1 construct: The full length cDNAs of human AMPK β2 (NM_005399.3) and human AMPK α2 (NM_006252.3); The full length cDNAs of human AMPK β2 (NM_005399.3); the full length cDNA of human AMPK γ1 (NM_002733.3); 6xHis (N); made in house; host or cells: Escherichia coli BL21 CodonPlus (DE3)-RIL (AMPK); BL21 Star (DE3) (CaMKK2)
Briefly: Test Example 2: AMPK activator evaluation, mobility-shift kinase assay after CaMKK2 phosphorylation. It is filed as biochemical. The conditions noted are these: for EC150: compound concentration showing 150% relative to the control (100%); for Emax: maximum rate of increase in activity within the measurement range, control = 100%. The procedure:
The full length cDNAs of human AMPK β2 (NM_005399.3) and human AMPK α2 (NM_006252.3) were inserted into the MCS1 and MCS2 of the pETDuet-1 vector to prepare a human AMPK β2 and human AMPK α2 (6× His tag at the 5′ terminus) expressing plasmid. The plasmid was cotransfected with an expression plasmid, in which the full length cDNA of human AMPK γ1 (NM_002733.3) had been inserted into pET28b(+), into BL21 CodonPlus (DE3)-RIL to obtain an expression strain. The expression strain was cultured in TB medium, followed by induction with 0.5 mM IPTG, and cultured at 25° C. for 3 hours and then harvested. After ultrasonication, supernatant was collected and applied to Histrap FF column (GE) and RESOUECE Q column (GE) to prepare 12.5 mg of purified sample containing three types of subunit from 1.8 L of broth.
An expression vector, in which the full length cDNA of human CAMKK β (NM_172226.1) had been inserted into pGEX-6P-3, was transfected into BL21 Star (DE3). The expression strain was cultured in TB medium, followed by induction with 0.5 mM IPTG, and cultured at 25° C. for 3 hours and then harvested. After ultrasonication, supernatant was collected and applied to GSTrap FF column (GE) to prepare 14 mg of GST-fused CAMKK β from 720 ml of broth.
Thus, phosphorylation treatment was carried out as pretreatment.
Human AMPK α2β2γ1 in an amount to give a conversion rate of approximately 10% by reaction for 2 hours, and CaMKK2 in an amount capable of sufficiently imparting activity to AMPK for one hour were mixed in a buffer solution consisting of a 50 mM HEPES-NaOH buffer solution (pH 7.0), 100 mM NaCl, 5 mM magnesium chloride, 0.1% bovine serum albumin, 0.2 mM sodium orthovanadate(V), 1 mM ethylene glycol-bis(2-aminoethyl ether)-N,N,N′,N′-tetraacetic acid (EGTA), 5 mM disodium β-glycerophosphate, 1 mM dithiothreitol and 0.2 mM ATP, and the obtained liquid was left to stand at 25° C. for 1 to 1.5 hours to sufficiently phosphorylate AMPK.
After that, to the enzyme liquid, which had been subjected to phosphorylation treatment, a compound dissolved in DMSO was added so as to have a 1% DMSO concentration. The obtained liquid was left to stand for 10 minutes.
To the liquid, a substrate solution consisting of a 50 mM HEPES-NaOH buffer solution (pH 7.0), 100 mM NaCl, 10 mM magnesium chloride, 0.1% bovine serum albumin, 0.2 mM sodium orthovanadate(V), 1 mM ethylene glycol-bis(2-aminoethyl ether)-N,N,N′,N′-tetraacetic acid (EGTA), 5 mM disodium β-glycerophosphate, 2 mM dithiothreitol, 0.4 mM ATP and 3 μM FL-Peptide 7 (manufactured by Caliper Life Sciences, Inc.) was added in equal amount (10 μl in total). The obtained liquid was allowed to react at 25° C. for 2 hours, and 10 μl of 20 mM EDTA was then added thereto to stop the reaction.
To detect phosphorylated fluorescent substrates, the reaction liquid was applied to a measuring device, LabChip EZ Reader II manufactured by Caliper Life Science, Inc., for detecting fluorescence by using differences in mobility due to differences in charge. The setting conditions for the device were pressure, −1.5 PSI; upstream voltage, −2250 V; downstream voltage, −400 V; post sample buffer sip time, 40 seconds; final delay, 120 seconds; and peak order, Product First.
A conversion rate was calculated from the peak heights of the resulting substrate and product. The conversion rate when not containing a compound was used as a control, and a concentration dependent curve was made by plotting the rate of increase in activity to the control at each concentration of a compound.

Each structure is given as a SMILES string.

T1 sequence (P54646 whole entry): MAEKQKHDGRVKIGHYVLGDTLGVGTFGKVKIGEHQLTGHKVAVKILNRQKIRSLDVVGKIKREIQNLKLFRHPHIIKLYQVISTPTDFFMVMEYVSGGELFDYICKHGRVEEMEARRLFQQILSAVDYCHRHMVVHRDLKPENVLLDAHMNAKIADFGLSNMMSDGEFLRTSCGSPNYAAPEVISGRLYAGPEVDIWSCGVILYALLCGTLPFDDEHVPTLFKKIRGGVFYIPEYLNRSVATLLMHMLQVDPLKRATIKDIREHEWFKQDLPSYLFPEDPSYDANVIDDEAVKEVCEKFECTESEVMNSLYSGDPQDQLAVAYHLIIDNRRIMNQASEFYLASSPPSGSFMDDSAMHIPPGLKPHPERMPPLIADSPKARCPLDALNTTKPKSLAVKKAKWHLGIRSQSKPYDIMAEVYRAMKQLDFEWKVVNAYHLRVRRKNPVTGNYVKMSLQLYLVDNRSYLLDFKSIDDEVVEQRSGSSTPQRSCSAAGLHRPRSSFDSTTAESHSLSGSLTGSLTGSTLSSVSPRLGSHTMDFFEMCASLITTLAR
T1 sequence (O43741 whole entry): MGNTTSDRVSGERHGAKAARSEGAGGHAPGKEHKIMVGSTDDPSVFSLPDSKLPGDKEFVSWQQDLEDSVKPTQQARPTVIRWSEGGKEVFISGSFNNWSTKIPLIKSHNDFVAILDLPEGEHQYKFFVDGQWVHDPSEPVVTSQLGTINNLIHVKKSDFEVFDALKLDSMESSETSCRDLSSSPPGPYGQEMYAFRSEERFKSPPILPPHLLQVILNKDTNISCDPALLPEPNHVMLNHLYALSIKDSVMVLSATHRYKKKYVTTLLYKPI
T1 sequence (P54619 whole entry): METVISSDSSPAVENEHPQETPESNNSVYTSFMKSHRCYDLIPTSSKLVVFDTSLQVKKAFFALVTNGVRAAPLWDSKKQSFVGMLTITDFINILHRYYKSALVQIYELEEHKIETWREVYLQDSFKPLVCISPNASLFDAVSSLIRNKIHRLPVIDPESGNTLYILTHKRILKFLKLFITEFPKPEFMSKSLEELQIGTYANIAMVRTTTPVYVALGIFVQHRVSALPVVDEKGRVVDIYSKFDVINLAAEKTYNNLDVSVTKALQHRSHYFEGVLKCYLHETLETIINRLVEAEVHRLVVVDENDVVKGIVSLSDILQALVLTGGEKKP

Turning to `Cn1cc(-c2cc(F)c(CNc3nc4nc(O[C@@H]5CO[C@H]6[C@@H]5OC[C@H]6O)[nH]c4cc3Cl)c(F)c2)ccc1=O` [Compound I-2-217], the EC150 is reported as 47 nM and the Emax was determined as 637%.

`COCCOc1cc(F)c2c(c1)CC[C@@H]2Nc1nc2nc(O[C@@H]3CO[C@H]4[C@@H]3OC[C@H]4O)[nH]c2cc1Cl` [Compound I-2-220]: the EC150 amounted to 1.1 nM and the Emax amounted to 669%.

Consider `CN(C)CCCc1cc(F)c(CNc2nc3nc(O[C@@H]4CO[C@H]5[C@@H]4OC[C@H]5O)[nH]c3cc2Cl)c(F)c1` [Compound I-2-222], for which the EC150 turned out to be 16 nM and the maximum response (Emax) is 532%.

Take `CCOCCOc1cc(F)c2c(c1)CCC2Nc1nc2nc(O[C@@H]3CO[C@H]4[C@@H]3OC[C@H]4O)[nH]c2cc1Cl` (stereo partly drawn) [Compound I-2-223]: the EC150 came to 2.8 nM and the Emax stood at 649%.

`O[C@@H]1CO[C@H]2[C@@H]1OC[C@H]2Oc1nc2nc(NCc3c(F)cc(-c4cnn(CCN5CCOCC5)c4)cc3F)c(Cl)cc2[nH]1` [Compound I-2-228]: the EC150 amounted to 8.5 nM and the Emax turned out to be 528%.

On to `CC(C)(O)CCc1cc(F)c(CNc2nc3nc(O[C@@H]4CO[C@H]5[C@@H]4OC[C@H]5O)[nH]c3cc2Cl)c(F)c1` [Compound I-2-233], for which the EC150 is listed as 9.3 nM and the maximum response (Emax) was 507%.

Consider `COC/C=C/c1cc(F)c2c(c1)CCC2Nc1nc2nc(O[C@@H]3CO[C@H]4[C@@H]3OC[C@H]4O)[nH]c2cc1Cl` (stereo partly drawn) [Compound I-2-238], for which the EC150 is listed as 4.1 nM and the maximum response (Emax) is 553%.

Turning to `Cn1cc(-c2cc(F)c3c(c2)CCC3Nc2nc3nc(O[C@@H]4CO[C@H]5[C@@H]4OC[C@H]5O)[nH]c3cc2Cl)cn1` (stereo partly drawn) [Compound I-2-239], the EC150 came out at 5.6 nM and the Emax is 535%.

With `O[C@@H]1CO[C@H]2[C@@H]1OC[C@H]2Oc1nc2nc(/C=C/c3ccc(F)cc3F)c(Cl)cc2[nH]1` [Compound I-2-244], the EC150 was 92 nM and the Emax came to 517%.
